Key:
CCD841 cells = assay: FITC-labeled peptide immunofluorescence assay, control cells; type: cell-based, human; conditions: fluorescein-labeled peptide, 10 μM, 1 hour at RT, Figure 1B
five colon cancer cells = assay: FITC-labeled peptide immunofluorescence assay, colon cancer cells; type: cell-based, human; conditions: fluorescein-labeled peptide, 10 μM, 1 hour at RT, Figure 1B
[1] = tested on: five colon cancer cell lines; assay: Flow cytometry; type: cell-based, human; conditions: FITC-L20 10 μM, 1 hour at RT, all colon cancer cells, Figure 1C
[2] = tested on: gastric cancer cells including AGS, SNU216, and SNU638; assay: L20 peptide binding to gastric cancer cells; type: cell-based; conditions: Figure 1D

In the case of ANLNLWTDYIRW [L20 peptide], the “fluorescence on the control cell line” value (CCD841 cells) is reported as “negligible”, the “fluorescence on colon cancer cells” value (five colon cancer cells) is reported as “very intense fluorescence” and the “FACS fluorescence compared to the control peptide” value [1] is reported as “right shift of fluorescence”. The “fluorescence in gastric cancer cell lines compared to the control cells” value [2] was “did not show higher fluorescence”.
